Results as given in ChEMBL document CHEMBL4033745, “3D-QSAR (CoMFA, CoMSIA), molecular docking and molecular dynamics simulations study of 6-aryl-5-cyano-pyrimidine derivatives to explore the structure requirements of LSD1 inhibitors” (Bioorg Med Chem Lett, 2017).

Target: Lysine-specific histone demethylase 1A (Homo sapiens, UniProt O60341)
Assay: Inhibition of LSD1 (unknown origin)

IC50 (read-out: IC50)	IC50 (read-out: pIC50 (converted))	SMILES
125 µM		C#CCSc1nc(Cl)c(C#N)c(-c2ccc([N+](=O)[O-])cc2)n1
125 µM		N#Cc1c(Cl)nc(SCc2cn(Cc3ccccc3Cl)nn2)nc1-c1ccc(Cl)cc1
125 µM	123 µM	C#CCSc1nc(Nc2ccc([N+](=O)[O-])cc2)c(C#N)c(-c2ccccc2)n1
125 µM		C#CCSc1nc(Nc2ccc(Cl)cc2)c(C#N)c(-c2ccccc2)n1
125 µM		C#CCSc1nc(Nc2ccc(F)cc2)c(C#N)c(-c2ccccc2)n1
125 µM		COc1cc(-c2nc(SCc3ccc(F)cc3)nc(NNC(N)=S)c2C#N)cc(OC)c1OC
